Data taken from US10316064B2, “Teicoplanin analogs and uses thereof” (Academia Sinica, priority 2014, dated 2019).
In brackets after ≈: the same amount, converted by molar mass. Where two headings read alike, the source gives them in different places.

How the values were obtained:
Orf11*/Dbv8 = experiment: Isothermal titration calorimetry (ITC) analysis of substrate-enzyme affinity; assay type: binding; conditions: ligand injected into protein solution (0.1 mM)
Description: (§1) ITC thermograms of Orf11* versus CoA, acetyl-CoA, butyryl-CoA, hexanoyl-CoA, octanoyl-CoA, decanoyl-CoA, lauroyl-CoA, myristoyl-CoA, palmitoyl-CoA, stearoyl-CoA or Tei-pseudoaglycone. Each exothermic heat pulse corresponds to an injection of 2 μl of ligands (1 mM˜5 mM) into a protein solution (0.1 mM); integrated heat areas constitute a differential binding curve that was fitted with a standard single-site binding model (Origin 7.0, MicroCal iTC200).
(§2) Protein expression, purification and confirmation of purity were performed according to standard protocols. Acyl-CoA analogs were chemically synthesized as described previously (Huang, Y. T. et al. In vitro characterization of enzymes involved in the synthesis of nonproteinogenic residue (2S,3S)-beta-methylphenylalanine in glycopeptide antibiotic mannopeptimycin. Chembiochem 10, 2480-2487, doi:10.1002/cbic.200900351 (2009); Li, T. L., Spiteller, D. & Spencer, J. B. Identification of a pentaketide stilbene produced by a type III polyketide synthase from Pinus sylvestris and characterisation of free coenzyme A intermediates. Chembiochem 10, 896-901, doi:10.1002/cbic.200800840 (2009)). Single-wavelength anomalous dispersion (SAD) and molecular replacement (MR) methods were used to solve structures of native and complex Orf11*/Dbv8. Mutants were made by using QuickChange®. Biochemical analyses for wild type protein and mutants were performed using LC-MS. Oligomerization states of the proteins in solution were determined by gel filtration chromatography and analytical ultracentrifugation (AUC). Substrate-enzyme affinity was determined using isothermal titration calorimetry (ITC). Biological assays were performed according standard protocols.

ATCC 29302 = experiment: MIC by broth microdilution (NCCLS); assay type: cell-based
Description: (§3) The MIC values were determined by the broth microdilution method, as recommended by the National Committee for Clinical Laboratory Standards (NCCLS). Briefly, overnight cultures of tested bacteria were suspended to a turbidity of 0.1 OD units (1˜5×10^8 CFU/ml). Microtiter plates containing serial dilutions of each antimicrobial agent (0, 1, 2, 4, 8, 16, 32, 64, and 128 μg/ml) were inoculated with each organism to yield the appropriate density (1˜5×10^5 CFU/ml) in a 200 μL final volume. The plates were incubated for 18˜22 h at 37° C.
(§4) MICs were determined as concentrations at which no growth was observed against the strain tested. Experiments were performed in double duplicate. ATCC 29302/ATCC 33186: a standard strain; ATCC 51299: a low-level vancomycin-resistant (VanB type); ATCC 51559: a multidrug-resistant strain (ampicillin, ciprofloxacin, gentamicin, rifampin, teicoplanin and vancomycin, VanA type VRE); ATCC 700221: a strain resistant to vancomycin, VanA type VRE. ATCC 700802 is a strain resistant to gentamicins and vancomycin.

ATCC 33186 = experiment: MIC by broth microdilution (NCCLS); assay type: cell-based
Description: as §3, §4

ATCC 700802 = experiment: MIC by broth microdilution (NCCLS); assay type: cell-based
Description: as §3, §4

ATCC 51299 = experiment: MIC by broth microdilution (NCCLS); assay type: cell-based
Description: as §3, §4

ATCC 700221 = experiment: MIC by broth microdilution (NCCLS); assay type: cell-based
Description: as §3, §4

ATCC 51559 = experiment: MIC by broth microdilution (NCCLS); assay type: cell-based, E. faecalis
Description: as §3, §4

E. faecalis (ATCC 51559) = experiment: Mouse infection treatment study, ED50 (rescue of 50% infected mice); assay type: in vivo
Description: The preliminary ED50 (potency) of the 2-decanoyl,6-octanoyl teicoplanin analog was determined as follows. 6-8 weeks BALB/c female mice were purchased from the National Laboratory Animal Breeding and Research Center, Taipei, Taiwan. Mice with average body weight of 25 to 30 g were subjected to infection via intraperitoneal (i.p.) injection with 1×10^10 cfu/mouse of E. faecalis (ATCC 51559) at day 0. For the treatment study, mice were randomly assigned into five groups at the start of the experiment and administered different amount of either vancomycin, teicoplanin, 2-C10-6-C8-Teicoplanin, or saline (as a blank control) by i.v. twice a day for two days (from day 1 to day 2, a total of 4 doses). The ED50 was determine by the concentration of compounds sufficient to rescue 50% infected mice.

Orf11* = molecular target: T1, Orf11* (Actinoplanes teichomyceticus, UniProt Q70AY4); experiment: isothermal titration calorimetry (ITC) of acyl-CoA ligands versus Orf11* (FIG. 9); assay type: binding
T1 sequence (Q70AY4 1-323): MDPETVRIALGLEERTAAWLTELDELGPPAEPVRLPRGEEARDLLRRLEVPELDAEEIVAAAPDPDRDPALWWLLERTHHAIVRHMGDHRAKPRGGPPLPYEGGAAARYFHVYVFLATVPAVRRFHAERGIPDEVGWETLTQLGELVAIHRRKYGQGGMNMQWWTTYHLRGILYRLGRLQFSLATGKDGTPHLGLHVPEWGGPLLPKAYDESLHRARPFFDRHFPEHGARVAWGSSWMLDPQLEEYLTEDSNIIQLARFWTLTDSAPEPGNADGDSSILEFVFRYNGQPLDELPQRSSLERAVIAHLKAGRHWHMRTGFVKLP
Description: as §1
The orf11* and dbv8 genes were amplified and subcloned into the expression vector pET28a(+). The clones were transformed into E. coli BL21(DE3) for protein over-expression. A typical procedure is described as follows: One liter of LB medium containing 50 mg/L kanamycin was inoculated with 10 mL of an overnight culture grown in LB medium (containing 50 mg/L kanamycin), induced with 1 mL 1.0M IPTG (to give 1.0 mM; exact concentrations varied between proteins) at an OD600 of 0.7, and grown for a further 8 hours at 16° C. Cells were harvested by centrifugation at 6000 rpm for 20 min at 4° C., resuspended in 30 mL binding buffer (50 mM Tris at pH 8.0, 500 mM NaCl, 10 mM imidazole, 10% glycerol) and disrupted by microfluidizer. The cell lysate was centrifuged at 18000 rpm for 30 minutes to remove cell debris. The supernatant was applied to a Ni^2+-NTA agarose resin column (2 mL, Novagen) pre-equilibrated with binding buffer. The column was washed sequentially with 20 mL of binding buffer and 10 mL washing buffer (50 mM Tris at pH 8.0, 500 mM NaCl, 50 mM imidazole, 10% glycerol). The bound protein then was eluted with 10 mL of elution buffer (50 mM Tris at pH 8.0, 500 mM NaCl, 250 mM imidazole, 10% glycerol). Gel filtration was performed using an Äkta FPLC system equipped with an S-200 Superdex column (Amersham Bioscience) under isocratic conditions (50 mM Tris at pH 8.0, 500 mM NaCl). The buffer was exchanged using Millipore centrifugal filters and HEPES buffer (50 mM, pH 8.0). Protein purity was determined by SDS-PAGE and Western blotting, and electrospray mass spectrometry (ESI-MS). Protein concentrations were estimated using the Bradford assay.
as §2
The GNAT domain in Orf11*/Dbv8 differs from the canonical GNAT fold as it lacks the first β strand, and the C-terminus extends with four additional helices (α10-α13). β-Strands β3 and β4 splay apart at C-termini, where Pro198 replaces a typical β-bulge. In a decanoyl-CoA-complexed binary structure (FIG. 2c), the decanoyl-CoA bends in an ‘S’ shape edging in the splayed fingers β3 and β4 (FIG. 8). […]

[1] = ITC, injections of 2 μl of ligand (1 mM˜5 mM) into protein solution (0.1 mM), single-site binding model (Origin 7.0, MicroCal iTC200), Orf11* expressed from pET28a(+) in E. coli BL21(DE3), no mutation stated, read-out: dissociation constant (Kd)
[2] = standard strain, 18~22 h at 37° C.

## CC(C)(COP(=O)(O)OP(=O)(O)OC[C@H]1O[C@@H](n2cnc3c(N)ncnc32)[C@H](O)[C@@H]1OP(=O)(O)O)[C@@H](O)C(=O)NCCC(=O)NCCS [CoA 5, coenzyme A]
Orf11*/Dbv8
  binding to the enzyme (ITC): barely binds

## CN[C@H](CC(C)C)C(=O)N[C@H]1C(=O)N[C@@H](CC(N)=O)C(=O)N[C@H]2C(=O)N[C@H]3C(=O)N[C@H](C(=O)N[C@H](C(=O)O)c4cc(O)cc(O)c4-c4cc3ccc4O)[C@H](O)c3ccc(c(Cl)c3)Oc3cc2cc(c3O[C@@H]2O[C@H](CO)[C@@H](O)[C@H](O)[C@H]2O[C@H]2C[C@](C)(N)[C@H](O)[C@H](C)O2)Oc2ccc(cc2Cl)[C@H]1O [Vancomycin, vancomycin]
ATCC 29302; 22 h, read-out: MIC ATCC 29302
  MIC: 1 µg/mL (≈ 0.69 µM)
ATCC 33186; 22 h, read-out: MIC ATCC 33186
  MIC: 4 µg/mL (≈ 2.76 µM)
ATCC 700802; 22 h, read-out: MIC ATCC 700802
  MIC: 64 µg/mL (≈ 44.2 µM)
ATCC 51299; 22 h, read-out: MIC ATCC 51299
  MIC: > 64 µg/mL
ATCC 700221; Enterococcus, ATCC 700221 / VRE, 22 h, read-out: MIC ATCC 700221
  MIC: > 128 µg/mL
ATCC 51559; Enterococcus, ATCC 51559 / VRE, 22 h, read-out: MIC ATCC 51559
  MIC: 1020 µg/mL (≈ 707 µM)
E. faecalis (ATCC 51559); Enterococcus faecalis, ATCC51559, 48 h, read-out: ED50 against ATCC 51559
  ED50: > 128 mg/kg

## CC(C)(COP(=O)(O)OP(=O)(O)OC[C@H]1O[C@@H](n2cnc3c(N)ncnc32)[C@H](O)[C@@H]1OP(=O)(O)O)[C@@H](O)C(=O)NCCC(=O)NCCSC(=O)c1ccccc1 [benzoyl-CoA]
Orf11*/Dbv8
  binding to the enzyme (ITC): does not bind

## CCCC(=O)SCCNC(=O)CCNC(=O)[C@H](O)C(C)(C)COP(=O)(O)OP(=O)(O)OC[C@H]1O[C@@H](n2cnc3c(N)ncnc32)[C@H](O)[C@@H]1OP(=O)(O)O [butyryl-CoA]
Orf11*
  Kd: 111 ± 23 µM

## CCCCCCCCCC(=O)SCCNC(=O)CCNC(=O)[C@H](O)C(C)(C)COP(=O)(O)OP(=O)(O)OC[C@H]1O[C@@H](n2cnc3c(N)ncnc32)[C@H](O)[C@@H]1OP(=O)(O)O [decanoyl-CoA]
Orf11*; [1]
  Kd: 1 ± 0.1 µM

## CCCCCC(=O)SCCNC(=O)CCNC(=O)[C@H](O)C(C)(C)COP(=O)(O)OP(=O)(O)OC[C@H]1O[C@@H](n2cnc3c(N)ncnc32)[C@H](O)[C@@H]1OP(=O)(O)O [hexanoyl-CoA]
Orf11*; [1]
  Kd: 85.6 ± 9 µM

## CCCCCCCCCCCC(=O)SCCNC(=O)CCNC(=O)[C@H](O)C(C)(C)COP(=O)(O)OP(=O)(O)OC[C@H]1O[C@@H](n2cnc3c(N)ncnc32)[C@H](O)[C@@H]1OP(=O)(O)O [lauroyl-CoA]
Orf11*; [1]
  Kd: 4.1 ± 0.8 µM

## CC(C)(COP(=O)(O)OP(=O)(O)OC[C@H]1O[C@@H](n2cnc3c(N)ncnc32)[C@H](O)[C@@H]1OP(=O)(O)O)[C@@H](O)C(=O)NCCC(=O)NCCSC(=O)CC(=O)O [malonyl-CoA]
Orf11*/Dbv8
  binding to the enzyme (ITC): does not bind

## CC(C(=O)O)C(=O)SCCNC(=O)CCNC(=O)[C@H](O)C(C)(C)COP(=O)(O)OP(=O)(O)OC[C@H]1O[C@@H](n2cnc3c(N)ncnc32)[C@H](O)[C@@H]1OP(=O)(O)O (stereo partly drawn) [methylmalonyl-CoA]
Orf11*/Dbv8
  binding to the enzyme (ITC): does not bind

## CCCCCCCCCCCCCC(=O)SCCNC(=O)CCNC(=O)[C@H](O)C(C)(C)COP(=O)(O)OP(=O)(O)OC[C@H]1O[C@@H](n2cnc3c(N)ncnc32)[C@H](O)[C@@H]1OP(=O)(O)O [myristoyl-CoA]
Orf11*
  Kd: 5.9 ± 1.2 µM

## CCCCCCCC(=O)SCCNC(=O)CCNC(=O)[C@H](O)C(C)(C)COP(=O)(O)OP(=O)(O)OC[C@H]1O[C@@H](n2cnc3c(N)ncnc32)[C@H](O)[C@@H]1OP(=O)(O)O [octanoyl-CoA]
Orf11*; [1]
  Kd: 1 ± 0.1 µM

## CCCCCCCCCCCCCCCC(=O)SCCNC(=O)CCNC(=O)[C@H](O)C(C)(C)COP(=O)(O)OP(=O)(O)OC[C@H]1O[C@@H](n2cnc3c(N)ncnc32)[C@H](O)[C@@H]1OP(=O)(O)O [palmitoyl-CoA]
Orf11*; [1]
  Kd: 0.4 ± 0.08 µM

## CCCCCCCCCCCCCCCCCC(=O)SCCNC(=O)CCNC(=O)[C@H](O)C(C)(C)COP(=O)(O)OP(=O)(O)OC[C@H]1O[C@@H](n2cnc3c(N)ncnc32)[C@H](O)[C@@H]1OP(=O)(O)O [stearoyl-CoA]
Orf11*; [1]
  Kd: 4.3 ± 0.8 µM

## Tei pseudoaglycone [Tei pseudoaglycone 3]
Orf11*/Dbv8
  binding to the enzyme (ITC): barely binds

## Teicoplanin
ATCC 29302; [2]
  MIC ATCC 29302: 0.25 µg/mL
ATCC 33186; [2]
  MIC ATCC 33186: 0.25 µg/mL
ATCC 700802; resistant to gentamicins and vancomycin, 18~22 h at 37° C.
  MIC ATCC 700802: 0.5 µg/mL
ATCC 51299; low-level vancomycin-resistant (VanB type), 18~22 h at 37° C.
  MIC ATCC 51299: 0.5 µg/mL
ATCC 700221; resistant to vancomycin, VanA type VRE, 18~22 h at 37° C.
  MIC ATCC 700221: >128 µg/mL
ATCC 51559; multidrug-resistant strain, VanA type VRE, 18~22 h at 37° C.
  MIC ATCC 51559: 256 µg/mL
E. faecalis (ATCC 51559); BALB/c female mice infected i.p. with 1×10^10 cfu/mouse, i.v. twice a day for two days (4 doses), amount rescuing 50% infected mice, preliminary
  ED50 against ATCC 51559: >128 mg/kg
